This note sets out measurements from patent US20150274701A1, “NEW AZIDES, METHOD FOR PRODUCING SAME AND APPLICATIONS THEREOF” (COMMISSARIAT A L'ENERGIE ATOMIQUE ET AUX ENERGIES …, priority 2012, published 2015).

The nature of experiment [1]: Azide/alkyne click reaction kinetics in a buffered medium (fluorescent test). The conditions noted are these: for Reaction rate / Ligation yield: aqueous medium at neutral pH, azide, alkyne and Cu 17.5 μM, sodium ascorbate 475 μM (25 eq); for Ligation yield: monitored for 20 minutes. How it is done: The azide/alkyne coupling reaction kinetics obtained using azides of the present invention and also the kinetics obtained using copper-chelating compounds and azides of the prior art were studied.
The kinetics were done under concentration conditions conventional in bioconjugation, i.e. in an aqueous medium at neutral pH and under conditions of low concentration of reagents: azide, alkyne and Cu 17.5 μM, sodium ascorbate 475 μM (25 eq).
The reactivity of the azides of the invention with respect to the azide/alkyne “click” reaction was evaluated by means of a fluorescent test (scheme 1) which makes it possible to establish the kinetic parameters of the reaction and to compare them with the solutions from the literature. This test uses a pro-fluorescent alkyne C1 which forms a highly fluorescent cycloaddition product C2. The synthesis and the fluorescence properties are described in the literature.
100 μl of a solution containing 35 μM of alkyne C1 and 35 μm of azide RN3 dissolved in a DMF/H2O mixture (50/50) are added to 50 μl of an aqueous solution containing 70 μM of CuSO4. The reaction is then initiated by adding 50 μl of an aqueous solution containing 1.75 mM of ascorbic acid (AS). The cycloaddition reaction is monitored by measuring, every 5 seconds, for 20 minutes, the fluorescence intensity at 400 nm following excitation at 320 nm. The reaction yield is calculated by means of a calibration range previously established with the cyclo-adduct C2.

A short description of experiment [2]: Ligation kinetics in a complex medium (cell lysate), fluorescent test. The conditions noted are these: azide and alkyne 17.5 μM, Cu 350 μM, sodium ascorbate 8.75 mM (500 eq). How it is done:
An experiment was also carried out in a cell culture medium. The process was carried out as follows:
100 μl of a solution containing 35 μM of alkyne C1 and 35 μM of azide RN3 dissolved in cell lysate are added to 50 μl of cell lysate containing 1.4 mM of CuSO4. The reaction is then initiated by adding 50 μl of an aqueous solution containing 1.75 mM of ascorbic acid (AS). The cycloaddition reaction is monitored by measuring, every 5 seconds, for 20 minutes, the fluorescence intensity at 400 nm following excitation at 320 nm. The reaction yield is calculated by means of a calibration range previously established with the cyclo-adduct C2.
Conditions: Azide and alkyne 17.5 μM, Cu 350 μM, sodium ascorbate 8.75 mM (500 eq).

Experiment [3] can be described thus: Click reaction kinetics of chelating azides in cell lysate (fluorescent test). The conditions noted are these: cell lysate of Jurkat (human T-cell leukemia), alkyne and azide 17 μM, copper sulfate 34 μM, sodium ascorbate 850 μM. The method, then:
(§1) The reaction kinetics were determined by means of a fluorescent test illustrated by the reaction below, making it possible to establish the kinetic parameters of the reaction and to compare them with the solutions from the literature. This test uses a pro-fluorescent alkyne which forms a highly fluorescent cycloaddition product.
(§2) The operating conditions are the following: the same concentration of 17 μM was used for the alkyne and for the azide. The copper sulfate concentration was 34 μM and the sodium ascorbate (AS) concentration was 850 μM.
(§3) The process was carried out, on the one hand, in a 0.1M phosphate buffer at pH 7.4 and, on the other hand, in a cell lysate obtained by means of three cycles of sonication of Jurkat ([…]) for 30 seconds. The alkyne, the azide and the copper sulfate are mixed at ambient temperature for 30 minutes and then the kinetics are initiated by adding sodium ascorbate.

Experiment [4] can be described thus: Click reaction kinetics of chelating azides in phosphate buffer (fluorescent test). The conditions noted are these: 0.1M phosphate buffer pH 7.4; alkyne and azide 17 μM, copper sulfate 34 μM, sodium ascorbate 850 μM. The method, then: as §1, §2, §3
In experiment [5] the test system is HuH-7 cells. Put plainly: Ligation in living cells, fluorescence microscopy. It is filed as cell-based. The conditions noted are these: HuH-7 cells pre-incubated with 62.5 nM paclitaxel-alkyne 2; 100 μM copper complex of compound 1 for 4 h. How it is done:
HuH-7 cells fixed on 96-well plates, incubated beforehand in the presence of paclitaxel 2 comprising an alkyne function, were treated with the copper complex above.
The cells were treated with 100 μl of a 62.5 nM solution of compound 2 dissolved in 0.1M phosphate buffer, and then incubated at 37° C. for 30 min. The cells are then washed twice by adding 100 μl of 0.1M phosphate buffer and then treated for 4 h with 100 μl of a 100 μM solution of the copper complex of compound 1. The cells are again washed twice by adding 100 μl of 0.1M phosphate buffer and then fixed by treating with 150 μl of a 4% formaldehyde solution. After fixing for 15 min, the cells are washed twice by adding 100 μl of 0.1M phosphate buffer and then incubated with a 62.5 nM solution of Tubulin Tracker® Green 3 for 30 min at 37° C. The cells are again washed with 0.1M phosphate buffer and then observed by fluorescence microscopy.
After cell washing steps, the fluorescence of the rhodamine part of the copper complex of compound 1 was measured. […] Compound 3, a covalent conjugate between the paclitaxel and the Oregon Green® fluorophore, was used as a control.
FIG. 8A illustrates the localization of the cell nucleus by the 4′,6′-diamidino-2-phenylindole reagent.

In experiment [1], `[N-]=[N+]=NCc1ccccn1` [Comparative example 2, reference compound] displayed a Reaction rate of 4.2 µM/min and a Ligation yield of 28%.

As for `COc1ccnc(CN=[N+]=[N-])c1` [Comparative example 3, reference compound], in experiment [2], the “position of the ligation yield versus time curve in FIG. 5” value is listed as “lower curves”. In experiment [1], this molecule displayed a Reaction rate of 3.5 µM/min and a Ligation yield of 35%.

As for `[N-]=[N+]=NCCCN(Cc1cn(CCCCC(=O)O)nn1)Cc1cn(CCCCC(=O)O)nn1` [Example 1, 5,5′-(4,4′-(((3-azidopropyl)azanediyl)bis(methylene))bis(1H-1,2,3-triazole-4,1-diyl))dipentanoic acid], in experiment [1], the Reaction rate came out at 12.0 µM/min and the Ligation yield turned out to be 74%. Also, in experiment [1] (buffered medium), the “ligation yields relative to the best comparable compounds of the prior art” value is “twice as high”. The “click reaction activity (FIG. 7)” value in experiment [3] was “make it possible to carry out the click reaction with efficiency”. Besides, the “click reaction activity (FIG. 6)” value in experiment [4] is on record as “make it possible to carry out the click reaction with efficiency”.

On to `CC(C)(C)n1cc(CN(CCCN=[N+]=[N-])Cc2cn(CCCCC(=O)O)nn2)nn1` [Example 2, 5-(4-(((3-azidopropyl)((1-(tert-butyl)-1H-1,2,3-triazol-4-yl)methyl)amino)methyl)-1H-1,2,3-triazol-1-yl)pentanoic acid], for which the “position of the ligation yield versus time curve in FIG. 5” value in experiment [2] is “upper curve”. Further, the “click reaction activity (FIG. 7)” value in experiment [3] is on record as “particularly effective”; in experiment [3] (listed as A20), “make it possible to carry out the click reaction with efficiency”. Besides, the “click reaction activity (FIG. 6)” value in experiment [4] is listed as “make it possible to carry out the click reaction with efficiency”.

Take `[N-]=[N+]=NCCCN(Cc1ccccn1)Cc1ccccn1` [Example A14, reference compound]: the “click reaction activity (FIG. 7)” value in experiment [3] was “inactive”. For the same molecule, the “click reaction activity (FIG. 6)” value in experiment [4] was “inactive”.

In experiment [1], `Cn1c(CN(CCCN=[N+]=[N-])Cc2nc3ccccc3n2C)nc2ccccc21` [Preparation 1, 3-Azido-N,N-bis((1-methyl-1H-benzo[d]imidazol-2-yl)methyl)propan-1-amine] yielded a Reaction rate of 101.7 µM/min and a Ligation yield of 65%. In addition, the “click reaction faster than the comparable compounds of the prior art” value in experiment [1] (buffered medium) is on record as “approximately 20 times”.

Take `[N-]=[N+]=NCCCN(Cc1cn(Cc2ccccc2)nn1)Cc1cn(Cc2ccccc2)nn1` [Preparation 2, 3-azido-N, N-bis((1-benzyl-1H-1,2,3-triazol-4-yl)methyl)propan-1-amine]: in experiment [1], the Reaction rate was 10.8 µM/min and the Ligation yield stood at 45%.

`CN(C)c1ccc2c(-c3cc(C(=O)NCCCN4C(=O)CC(SCC(=O)NCCCNC(=O)CCCn5cc(CN(CCCN=[N+]=[N-])Cc6cn(C(C)(C)C)nn6)nn5)C4=O)ccc3C(=O)[O-])c3ccc(=[N+](C)C)cc-3oc2c1` (centres unmarked) [azide 1, 4-((3-(3((2-((3-(4-(4-(((3-azidopropyl)((1-(tert-butyl)-1H-1,2,3-triazol-4-yl)methyl)amino)methyl)-1H-1,2,3-triazol-1-yl)butanamido)propyl)amino)-2-oxoethyl)thio)-2,5-dioxopyrrolidin-1-yl)propyl)carbamoyl)-2-(6-(dimethylamino)-3-(dimethyliminio)-3H-xanthen-9-yl)benzoate]: the “cell penetration and intracellular click coupling to paclitaxel-alkyne 2 bound to tubulin (FIG. 8)” value in experiment [5] is “capable of penetrating inside the cells and of coupling”.

In the case of “Diethyl 5,5′-(4,4′-(((3-azidopropyl)azanediyl)bis(methylene))bis(1H-1,2,3-triazole-4,1-diyl))dipentanoate [Preparation 3]”, the “position of the ligation yield versus time curve in FIG. 5” value in experiment [2] is “middle curve”. In addition, in experiment [1], the Reaction rate was found to be 16.5 µM/min and the Ligation yield is on record as 67%. Besides, the “ligation yields relative to the best comparable compounds of the prior art” value in experiment [1] (buffered medium) is recorded as “twice as high”.
